For one molecule, IC50 results are on record in patent publication EP1607399B1 (priority 2000, dated 2001).

For the assay, the system named is RPMI 8322 human melanoma cells. It counts as cell-based. To be noted: read-out: µM to 50% cell viability.

`Cc1ccc(S(=O)(=O)NCCOP(=O)(N(CCCl)CCCl)N(CCCl)CCCl)cc1` [Compound 23]: the IC50 is > 500 µM.
